Data on three compounds can be found in patent US20010049372A1, “Antiviral nucleoside analogues” (BioChem Pharma Inc., priority 1998, published 2001).

Where two headings read alike, the source gives them in different places. A value given as a limit tells only on which side of the number the result lay.

One data set has as its system HepG2 cells. Description: Mitochondria DNA toxicity assay. To be noted: 28 days, up to 100 μM, the highest concentration tested (FIG. 1). Type of data set: cell-based. Here is the method:
Mitochondria DNA (mtDNA) toxicity of the compound A (−) was tested in HepG2 cells. The cells were cultured for 28 days under the compound treatment. Th cells were passaged once a week. However, the cell culture medium containing proper concentration of the compound was changed twice a week. Zalcitabine was used as a control. The toxicity was determined by measuring content ratio of mtDNA and nuclear DNA (28s rDNA) by a southern hybridization assay (de Muys et al., 1999). […]

The nature of data set [1]: Pharmacokinetic study in male and female rats (single dose iv or po). Format: in vivo, rat. To be noted: for Cmax / bioavailability / Tmax: plasma; for Cmax: read-out: Cmax; for Tmax: read-out: Tmax (converted). As to the method:
Compound A(−), DAPD, and DXG were administrated as a single dose, either intravenously through the jugular vein at 10 mg/kg or orally at 20, 125, 500, 1000 or 2000 mg/kg. All rats were fasted for 12 hours prior to po dosing treatment. The vehicle used for both iv and po administrations was 0.1% carboxymethylcellulose and 0.1% Tween 80 in distilled water, acidified to pH 3.15 with 1N HCl. Blood samples were taken from rats at the times shown in the schedule below for all oral dosing. From a total of 10 rats for each administration, seven time points were taken for the intravenous through the jugular vein dosing (2, 5, 15, 30, 60, 120 and 240 min) and for the oral dosing (5-360 min) at 20 mg/kg, whereas two additional time points at 480 and 1440 min were taken for the oral doses of 125-2000 mg/kg. As a result, each time point was in quadruplicate, except for the 1440 minute time point when blood samples were taken through the jugular vein from all the rats prior to being euthanized.
Blood samples (1 ml) were collected from the rat tails into a vacutainer containing EDTA (3 ml) for both iv and po administrations. Plasma samples were prepared by centrifugation at 2000×g for 15 minutes at 4° C.
Plasma samples (diluted to 1 ml with water) were loaded onto the Abselut Nexus sorbent (#1210-3100) and drawn through under low vacuum (approximately 5′′ Hg). One milliliter of deionized water was added to the sorbent and drawn through under vacuum. The extraction column was dried for 1 minute using a high vacuum (>10′′ Hg). One milliliter of methanol was added to the Abselut Nexus column and the eluent was collected at 1-2 ml/min. The eluent was evaporated to dryness using a Speed Vac, and the samples were reconstituted in 120 μl H2O; 100 μl was used for injection.

The nature of data set [2]: Cellular toxicity by WST-1 staining. Type of data set: cell-based. Particulars: human, CBMCs. Here is the method: The cellular toxicity of the compounds were assessed on various cells using [^3H]-thymidine uptake. Various cells, including Molt-4, HT1080, DU-145, HepG-2 and HSF, were plated at a concentration of 1-2×10^3 cells per well (96 well plates). After a 24 hr incubation period, 10-fold serial diluted compounds (b 10^−4 M to 10^−10 M) were added to the culture medium and the cells were further incubated for 72 hrs. [^3H]-thymidine was added during the final 18 hr incubation period. After incubation with the [^3H]-thymidine, the cells were washed once with PBS, treated with trypsin if the cells were adherent, and then resuspended in water (hypotonic lysing of cells). The cellular extract was applied directly to a Tomtec Harvester 96. Using this instrument the extracted DNA is adsorbed onto filters, washed and the incorporated [^3H]-thymidine is then counted. The 50% cytotoxic concentration (CC50) was determined by comparing the radioactive counts per minute of the samples in the presence of the compounds against the control. The cellular toxicity of the compounds was also tested by WST-1 staining through assessing proliferation of MT-2, H9, Jurkat, U937, and CBMCs. The established cell lines were cultured in RPMI medium in 96-well plates at a density of 5×10^4 cells/well while CBMCs were plated at a concentration of 0.5×10^6/well. A 10-fold serial diluted (10^−4-10^−7 M) compound was added at day zero. At day 4, the cells were passaged by changing half medium containing appropriately diluted compound. The cell activities were assessed at day 7 using the WST-1 reagent (Boehringer Mannheim) following the protocol provided by the supplier.
In the WST-1 staining experiments, cell lines were cultured in RPMI medium in 96-well plates at a density of 5×10^4 cells/well. CBMCs were plated at a concentration of 0.5×10^6/well. Compounds (10^−4-10^−7 M) were added at day zero. Cell viability was assessed on day 7 using the WST-1 reagent (Boehringer Mannheim) following the protocol provided by the supplier.

Another data set has as its system DU-145. Put plainly: Cellular toxicity by [3H]-thymidine uptake. Format: cell-based. Particulars: 72 hrs. A digest of the protocol: (§1)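 Cells plated at 1-2×10^3/well, pre-incubated 24 h, then exposed 72 h to 10-fold serial compound dilutions (10^−4 M to 10^−10 M). [3H]-thymidine was added for the final 18 h and DNA incorporation counted after hypotonic lysis and harvesting. CC50 derived from cpm relative to untreated controls.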

The next data set relates to Molt-4. Put plainly: Cellular toxicity by [3H]-thymidine uptake. Type of data set: cell-based. To be noted: Table 14; 72 hrs; read-out: CC50 (μM) [^3H]TTP incorporation in: Molt4. A digest of the protocol: as §1
In the next data set the test system is HT1080. Description: Cellular toxicity by [3H]-thymidine uptake. Format: cell-based. Particulars: Table 4; 72 hrs. A digest of the protocol: as §1
A further data set has as its system HepG-2. Put plainly: Cellular toxicity by [3H]-thymidine uptake. Format: cell-based. Particulars: Table 4; 72 hrs. A digest of the protocol:
as §1

The test system of the next data set is HSF. Description: Cellular toxicity by [3H]-thymidine uptake. Type of data set: cell-based. To be noted: Table 14; 72 hrs; read-out: CC50 (μM) [^3H]TTP incorporation in: HSF. A digest of the protocol: as §1

The term Cmax denotes the highest concentration seen after dosing. By bioavailability is commonly meant dose-corrected exposure relative to a reference, in per cent. The term Tmax denotes the time at which the peak concentration occurs. On to `Nc1nc(NC2CC2)c2ncn([C@H]3CO[C@@H](CO)O3)c2n1` [Compound A (-), (−)-(2R,4R)-2-hydroxymethyl-4-(2′-amino-6′-cyclopropylamino-purine-9′-yl)-1,3-dioxolane], for which, in the data set on HepG2 cells, the “mtDNA toxicity (content ratio of mtDNA and nuclear DNA, southern hybridization)” value is “did not show significant mtDNA toxicity”. In addition, in data set [1] (female rat, iv 10 mg/kg), the “AUG” value amounted to 328 µg·min/mL, the “T-half elimination” value was 36.9 min and the Cmax is 22900 ng/mL. In addition, in data set [1] (female rat, po 20 mg/kg), the “AUG” value came to 602 µg·min/mL, the “T-half elimination” value amounted to 57.1 min, the bioavailability is 92% and the Cmax came out at 5500 ng/mL. The Tmax in data set [1] (female rat, po 20 mg/kg) is 22.8 min. In addition, in data set [1] (male rat, iv 10 mg/kg), the “AUG” value was 304 µg·min/mL, the “T-half elimination” value is reported as 34.2 min and the Cmax was 19200 ng/mL. In data set [1] (male rat, po 20 mg/kg), the “AUG” value was 600 µg·min/mL, the “T-half elimination” value is recorded as 72.5 min, the bioavailability was 99% and the Cmax amounted to 4600 ng/mL. For the same compound, the Tmax in data set [1] (male rat, po 20 mg/kg) was 23.4 min. For the same compound, the CC50 at 7 days in data set [2] (Table 14, day 7, read-out: CC50 (μM) WST-1 CBMC) is > 100 µM.

Consider `Nc1ccn([C@@H]2CS[C@H](CO)O2)c(=O)n1` [Lamivudine, lamivudine], for which the “CC50 (μM) [^3H-]TTP incorporation in: U-145” value in the data set on DU-145 (Table 4) is >500/100. In addition, the CC50 in the data set on Molt-4 was > 100 µM. In addition, in the data set with HT1080, the “CC50 (μM) [^3H-]TTP incorporation in: HT1080” value is >500/100. The “CC50 (μM) [^3H-]TTP incorporation in: HepG2” value in the data set with HepG-2 was 350/100.

Consider `Cc1cn([C@H]2C[C@H](N=[N+]=[N-])[C@@H](CO)O2)c(=O)[nH]c1=O` [Zidovudine, zidovudine], for which the CC50 is > 10 µM with DU-145 (Table 14, read-out: CC50 (μM) [^3H]TTP incorporation in: U145) and > 10 µM in the data set with HSF. Moreover, the CC50 at 7 days in data set [2] (Table 4, day 7, read-out: CC50 (μM) WST-1 CBMC) turned out to be 74 µM.
